Type in all cases: biochemical
Assay [1] has as its target T1, AtOXP1 (Arabidopsis thaliana, UniProt Q9FIZ7).
T1 construct: gene OXP1; native enzyme in crude protein extract of 14-d-old seedlings; assigned by comparison with oxp1-1 mutant
T1 sequence (Q9FIZ7 1-1266): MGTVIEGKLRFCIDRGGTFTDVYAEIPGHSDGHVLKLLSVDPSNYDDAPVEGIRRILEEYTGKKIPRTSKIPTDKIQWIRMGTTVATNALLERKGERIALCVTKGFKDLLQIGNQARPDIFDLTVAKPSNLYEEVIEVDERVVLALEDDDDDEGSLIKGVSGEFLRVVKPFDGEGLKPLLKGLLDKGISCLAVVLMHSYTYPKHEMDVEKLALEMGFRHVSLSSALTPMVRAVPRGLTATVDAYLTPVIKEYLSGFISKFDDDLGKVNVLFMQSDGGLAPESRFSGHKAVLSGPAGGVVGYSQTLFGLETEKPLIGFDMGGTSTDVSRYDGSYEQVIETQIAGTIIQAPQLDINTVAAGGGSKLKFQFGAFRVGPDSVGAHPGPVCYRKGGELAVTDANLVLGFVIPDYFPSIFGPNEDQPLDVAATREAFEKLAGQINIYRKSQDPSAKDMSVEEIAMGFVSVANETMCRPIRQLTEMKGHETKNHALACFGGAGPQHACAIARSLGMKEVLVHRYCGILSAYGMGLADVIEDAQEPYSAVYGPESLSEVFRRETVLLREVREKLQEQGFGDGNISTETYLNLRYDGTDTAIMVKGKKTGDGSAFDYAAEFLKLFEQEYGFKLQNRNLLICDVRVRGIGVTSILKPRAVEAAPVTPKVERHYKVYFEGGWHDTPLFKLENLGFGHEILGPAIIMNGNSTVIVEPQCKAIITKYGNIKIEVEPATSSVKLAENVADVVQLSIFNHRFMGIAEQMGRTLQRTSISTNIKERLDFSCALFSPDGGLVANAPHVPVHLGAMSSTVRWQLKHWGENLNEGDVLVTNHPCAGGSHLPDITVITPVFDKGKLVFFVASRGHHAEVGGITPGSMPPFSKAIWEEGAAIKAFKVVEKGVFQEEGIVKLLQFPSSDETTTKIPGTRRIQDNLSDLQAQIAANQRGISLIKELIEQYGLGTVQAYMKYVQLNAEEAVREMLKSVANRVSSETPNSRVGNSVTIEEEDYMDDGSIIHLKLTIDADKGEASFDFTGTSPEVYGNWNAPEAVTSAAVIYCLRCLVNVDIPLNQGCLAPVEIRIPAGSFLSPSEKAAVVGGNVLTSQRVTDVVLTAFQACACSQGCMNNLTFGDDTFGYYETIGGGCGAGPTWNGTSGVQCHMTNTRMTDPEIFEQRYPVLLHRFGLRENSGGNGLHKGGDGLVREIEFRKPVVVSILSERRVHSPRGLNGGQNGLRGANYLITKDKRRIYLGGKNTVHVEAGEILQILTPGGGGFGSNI
In words: Cys production in crude seedling extract, WT versus oxp1-1. The conditions noted are these: native crude extract; stereochemistry of pCys not given.

The target in assay [2] is T1, AtOXP1. Put plainly: Glu production in crude seedling extract, WT versus oxp1-1. The conditions noted are these: native crude extract; stereochemistry of 5OP not given.
A further assay concerns the target T2, AtBGLU28-His6 (Arabidopsis thaliana, UniProt Q4V3B3).
T2 construct: gene BGLU28; C-terminal His6 tag; transient expression in Nicotiana benthamiana leaves; crude protein extract
T2 sequence (Q4V3B3 22-582): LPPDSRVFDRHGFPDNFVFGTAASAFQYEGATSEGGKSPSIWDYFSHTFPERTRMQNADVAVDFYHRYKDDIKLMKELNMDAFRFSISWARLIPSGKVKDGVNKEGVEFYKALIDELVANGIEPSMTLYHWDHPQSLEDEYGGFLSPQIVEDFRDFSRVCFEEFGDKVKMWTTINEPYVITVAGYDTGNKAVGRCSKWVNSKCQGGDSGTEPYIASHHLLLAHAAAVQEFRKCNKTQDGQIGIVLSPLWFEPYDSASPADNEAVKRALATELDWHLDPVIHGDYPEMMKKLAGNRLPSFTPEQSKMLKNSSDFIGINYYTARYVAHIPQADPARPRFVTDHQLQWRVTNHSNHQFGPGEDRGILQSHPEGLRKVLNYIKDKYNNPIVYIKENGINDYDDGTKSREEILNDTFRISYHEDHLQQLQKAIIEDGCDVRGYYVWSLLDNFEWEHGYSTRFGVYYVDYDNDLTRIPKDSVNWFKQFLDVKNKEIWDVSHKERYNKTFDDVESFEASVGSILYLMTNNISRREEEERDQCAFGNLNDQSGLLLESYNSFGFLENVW
Put plainly: D-glucose release, extract of expressing N. benthamiana leaves. The following applies: crude extract; His6-GFP control at background.

In another assay the target is T3, AtTGG1-His6 (Arabidopsis thaliana, UniProt P37702).
T3 construct: gene TGG1; His6 tag (printed AtTGG1-His6); transient expression in Nicotiana benthamiana leaves; crude protein extract
The description is as above. The following applies: crude extract; His6-GFP control at background.

T3 sequence (P37702 20-541): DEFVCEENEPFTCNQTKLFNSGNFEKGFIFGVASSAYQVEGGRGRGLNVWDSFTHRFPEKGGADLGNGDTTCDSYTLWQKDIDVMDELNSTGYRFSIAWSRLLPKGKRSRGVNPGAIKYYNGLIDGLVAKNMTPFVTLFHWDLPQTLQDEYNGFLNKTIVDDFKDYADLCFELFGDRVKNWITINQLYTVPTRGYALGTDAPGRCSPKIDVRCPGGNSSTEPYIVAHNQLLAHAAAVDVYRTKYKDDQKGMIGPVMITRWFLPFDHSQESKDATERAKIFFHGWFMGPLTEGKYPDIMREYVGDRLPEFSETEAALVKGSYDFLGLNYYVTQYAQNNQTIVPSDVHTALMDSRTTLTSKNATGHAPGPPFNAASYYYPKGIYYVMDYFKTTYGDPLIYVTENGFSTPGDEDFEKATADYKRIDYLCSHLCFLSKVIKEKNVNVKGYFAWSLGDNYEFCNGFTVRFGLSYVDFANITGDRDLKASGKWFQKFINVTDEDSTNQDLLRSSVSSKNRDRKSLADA

Regarding `O=C1N[C@H](C(=O)O)CS1` [pCys, 1,3-thiazolidin-2-one-4-carboxylic acid], the “Cys production in crude seedling extract, WT versus oxp1-1” value at AtOXP1 [1] is recorded as “supporting that AtOXP1 can hydrolyze pCys, as reported for OPases in other organisms”.

Regarding `O=C1CC[C@@H](C(=O)O)N1` [5OP, 5-oxoproline], at AtOXP1 [2], the “Glu production in crude seedling extract, WT versus oxp1-1” value is “lower rate of Cys production than the WT as observed for the Glu production from 5OP”. As to `O=S(=O)(O)O/N=C(/CCc1ccccc1)S[C@@H]1O[C@H](CO)[C@@H](O)[C@H](O)[C@H]1O` [PhE, 2-Phenylethyl glucosinolate], the “D-glucose release, extract of expressing N. benthamiana leaves” value at AtBGLU28-His6 was “exhibited higher rates of hydrolysis against 4MTB, benzyl glucosinolate, and PhE”; at AtTGG1-His6 it was “the extract containing AtTGG1-His6 hydrolyzed all the tested GLs at similar rates”. As for `CSCCCC/C(=N/OS(=O)(=O)O)S[C@@H]1O[C@H](CO)[C@@H](O)[C@H](O)[C@H]1O` [4MTB, 4-Methylthio-n-butyl glucosinolate], the “D-glucose release, extract of expressing N. benthamiana leaves” value was “exhibited higher rates of hydrolysis against 4MTB, benzyl glucosinolate, and PhE” on AtBGLU28-His6; “the extract containing AtTGG1-His6 hydrolyzed all the tested GLs at similar rates” on AtTGG1-His6.

The values above are taken from publication PMC8179156, “Retrograde sulfur flow from glucosinolates to cysteine in Arabidopsis thaliana” (Proceedings of the National Academy of Sciences of the …, 2021).
